Measured values taken from patent publication US11365192B2, “Pyridine compound substituted with azole” (TAISHO PHARMACEUTICAL CO., LTD., priority 2017, dated 2022).
pIC50: −log10 of the molar value.

Key:
[1] = Evaluation test for in vivo stability (half-life in plasma after intravenous administration to rats); parameters: species or system rats (Sprague-Dawley); details: rats (SD, male), 0.5 mg/kg, half-life in plasma from CL and Vdss
Method: (1) Evaluation Test for In Vivo Stability of Each Compound of the Present Invention
Each compound was dissolved in an aqueous solution of 10% HP-β-CD (0.5 mg/mL), and intravenously administered to rats (Sprague-Dawley (SD), male, 7-week-old, fasted, dose: 0.5 mg/kg). Blood was collected from the tail vein at each time of blood collection, and the plasma was collected by centrifugation. Quantitative analysis of each compound in plasma was performed using LC-MS/MS. Half-life in plasma (t1/2eff) was calculated from clearance (CL) and distribution volume (Vdss) calculated through noncompartmental analysis with Phoenix WinNonlin (Certara, L.P.), according to the equation described below. t1/2eff=LN(2)/(CL/Vdss)

human CYP4F22 = human CYP4F22 (Homo sapiens (Human), UniProt Q6NT55); experiment: CYP4F22 selectivity test; format: biochemical; details: cell membrane fraction expressing human CYP4F22, 14 μM luciferine derivative, 50 minutes
Method: (1) CYP4F22 Selectivity Test for Each Compound of the Present Invention
(§1) The reaction solution containing each compound [final concentration of 100 mM KPO4 (pH 7.4), 14 μM luciferine derivative, and 1 mM NADPH] was added to a cell membrane fraction (30 μg/mL protein) in which human CYP4F22 had been expressed. Following this, the cell membrane fraction was left to stand at room temperature for 50 minutes to perform an enzymatic reaction. After the reaction, a luciferine detection reagent was added, and the luminescence value was measured using a plate reader. By using that value, the percent inhibition of the enzymatic reaction of CYP4F22(%) was calculated according to the equation described below, and the 50% inhibitory concentration (IC50 value) for each compound was calculated. Percent inhibition of CYP4F22 enzyme (%)=[1−(A−B)/(C−B)]*100
(§2) A: Luminescence value with addition of compound
(§3) B: Luminescence value without addition of compound and enzyme
(§4) C: Luminescence value without addition of compound

[2] = molecular target: 20-HETE producing enzymes, human kidney microsome; experiment: Inhibition test against 20-HETE producing enzymes using human kidney microsomes (LC-MS/MS); format: biochemical; details: for pIC50: human kidney microsome 250 μg/mL protein, 20 μM arachidonic acid, 37° C. 45 minutes, LC-MS/MS
Method: (1) Inhibition Test for Each Compound of the Present Invention Against 20-HETE Producing Enzymes Using Human Kidney Microsomes
The reaction solution containing each compound [final concentration of 100 mM, KPO4 (pH 7.4), 20 μM Arachidonic acid, 4 mM NADPH] was added to the human kidney microsome (250 μg/mL protein). Following this, the microsome was left to stand at 37° C. for 45 minutes to perform 20-HETE producing reaction. After adding formic acid to stop the reaction, 9 times amount of acetonitrile was added, and deproteinization was carried out by centrifugation (1000 rpm, 4° C., 10 minutes). After that, the peak area value of 20-HETE was measured using a liquid chromatograph-tandem mass spectrometer (LC-MS/MS), and by using that value, the percent inhibition of 20-HETE producing enzyme (%) was calculated according to the equation described below, and the 50% inhibitory concentration (IC50 value) for each compound was calculated. Percent inhibition of 20-HETE producing enzyme (%)=[1−(A−B)/(C−B)]*100
A: Peak area value of 20-HETE/peak area value of internal standard substance with addition of compound
B: Peak area value of 20-HETE/peak area value of internal standard substance without addition of compound and NADPH
C: Peak area value of 20-HETE/peak area value of internal standard substance without addition of compound
(3) Inhibition Test for Compound a and Compound B Disclosed in WO03/022821 Against 20-HETE Producing Enzymes Using Human Kidney Microsomes
For compound A and compound B disclosed in WO03/022821, which have been described above, the 50% inhibitory concentration (IC50 value) against 20-HETE producing enzymes was calculated according to the method described in Test Example 2.
On the other hand, as described above, in Test Example 2, nonradioactive arachidonic acid was used as a substrate for 20-HETE producing reaction, and the amount of 20-HETE produced was measured using LC-MS/MS. In this case, the concentration of arachidonic acid, the substrate, is 20 μM.
In recent years, it is recommended that the substrate concentration for calculating the IC50 value be set at the Km value (Assay Guidance Manual, Sittampalam et. al. (URL: http://www.ncbi.nlm.nih.gov/books/NBK53196/)). According to this, in Test Example 2 described above, human kidney microsomes were used to calculate the Km value, and the calculated Km value of 20 μM was set as the concentration of the substrate, arachidonic acid.

human CYP4A11 = human CYP4A11 (Homo sapiens (Human), UniProt Q02928); experiment: Inhibition test against 20-HETE producing enzyme CYP4A11 (luciferine derivative, luminescence); format: biochemical
Procedure, shortened: (§5)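 E. coli membranes (100 μg/mL protein) expressing human enzyme, room temperature 60 min, luciferin-derivative luminescence; IC50 from % inhibition. CYP4F2: 50 mM KPO4 pH 7.4, 2.5 μM substrate, 1 mM NADPH. CYP4A11: 100 mM Tris-HCl pH 7.5, 60 μM substrate, NADP+/glucose 6-phosphate/G6PDH regenerating system, 3.3 mM MgCl2.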

human CYP4F2 = human CYP4F2 (Homo sapiens (Human), UniProt P78329); experiment: Inhibition test against 20-HETE producing enzyme CYP4F2 (luciferine derivative, luminescence); format: biochemical
Procedure, shortened: as §5

human CYP4V2 = human CYP4V2 (Homo sapiens (Human), UniProt Q6ZWL3); experiment: CYP4V2 selectivity test; format: biochemical; details: cell membrane fraction expressing human CYP4V2, 7 μM luciferine derivative, 40 minutes
Method: (3) CYP4V2 Selectivity Test for Each Compound of the Present Invention
as §1, with “7.4), 7” for “7.4), 14”, “fraction (38” for “fraction (30”, “human CYP4V2” for “human CYP4F22”, “for 40” for “for 50”, “of CYP4V2(%)” for “of CYP4F22(%)”, “of CYP4V2” for “of CYP4F22”
as §2, §3, §4

[3] = human CYP4A11, luciferine derivative, luminescence
[4] = human CYP4F2, luciferine derivative, luminescence

Sequence of human CYP4F22 (Q6NT55 whole entry): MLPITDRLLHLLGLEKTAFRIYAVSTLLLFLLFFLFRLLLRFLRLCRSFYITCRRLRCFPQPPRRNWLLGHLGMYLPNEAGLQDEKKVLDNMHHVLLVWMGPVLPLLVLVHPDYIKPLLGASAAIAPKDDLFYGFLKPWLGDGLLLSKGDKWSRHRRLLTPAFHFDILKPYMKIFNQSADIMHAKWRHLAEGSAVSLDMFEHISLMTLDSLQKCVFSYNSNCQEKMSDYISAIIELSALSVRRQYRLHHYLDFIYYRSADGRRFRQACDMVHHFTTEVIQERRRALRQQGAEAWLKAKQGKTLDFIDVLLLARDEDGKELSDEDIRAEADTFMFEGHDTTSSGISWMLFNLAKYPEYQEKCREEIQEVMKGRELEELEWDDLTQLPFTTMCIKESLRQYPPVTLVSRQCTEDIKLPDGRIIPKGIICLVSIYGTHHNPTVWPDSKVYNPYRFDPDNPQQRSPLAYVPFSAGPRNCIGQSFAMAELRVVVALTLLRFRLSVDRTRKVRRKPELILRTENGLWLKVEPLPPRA
Sequence of human CYP4A11 (Q02928 5-519): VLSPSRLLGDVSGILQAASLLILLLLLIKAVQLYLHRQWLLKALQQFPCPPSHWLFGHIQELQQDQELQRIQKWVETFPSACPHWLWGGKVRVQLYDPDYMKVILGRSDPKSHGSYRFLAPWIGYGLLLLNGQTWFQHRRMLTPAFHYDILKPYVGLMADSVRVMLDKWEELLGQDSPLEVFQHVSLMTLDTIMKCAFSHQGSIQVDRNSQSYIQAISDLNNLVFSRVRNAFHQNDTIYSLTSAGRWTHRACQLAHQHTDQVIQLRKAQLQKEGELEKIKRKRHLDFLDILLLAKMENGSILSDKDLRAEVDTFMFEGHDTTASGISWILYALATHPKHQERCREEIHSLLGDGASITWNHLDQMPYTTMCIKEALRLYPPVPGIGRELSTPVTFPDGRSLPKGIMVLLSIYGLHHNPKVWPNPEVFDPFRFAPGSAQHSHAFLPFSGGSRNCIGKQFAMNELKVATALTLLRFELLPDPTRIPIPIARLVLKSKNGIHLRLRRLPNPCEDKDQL
Sequence of human CYP4F2 (P78329 5-520): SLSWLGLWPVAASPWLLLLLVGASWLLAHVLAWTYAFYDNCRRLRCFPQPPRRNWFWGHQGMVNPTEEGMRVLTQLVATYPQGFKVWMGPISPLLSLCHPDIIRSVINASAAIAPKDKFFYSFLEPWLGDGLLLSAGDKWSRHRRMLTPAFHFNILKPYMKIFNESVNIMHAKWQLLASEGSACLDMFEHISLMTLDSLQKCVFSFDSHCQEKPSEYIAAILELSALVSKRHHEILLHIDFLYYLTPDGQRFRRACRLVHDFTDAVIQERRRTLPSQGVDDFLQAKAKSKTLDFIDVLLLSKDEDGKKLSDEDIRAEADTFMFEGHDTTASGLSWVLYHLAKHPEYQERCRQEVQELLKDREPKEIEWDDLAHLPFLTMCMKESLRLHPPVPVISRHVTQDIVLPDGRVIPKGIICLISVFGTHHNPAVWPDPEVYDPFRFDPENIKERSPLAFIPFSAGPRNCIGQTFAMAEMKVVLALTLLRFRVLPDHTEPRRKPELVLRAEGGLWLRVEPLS
Sequence of human CYP4V2 (Q6ZWL3 whole entry): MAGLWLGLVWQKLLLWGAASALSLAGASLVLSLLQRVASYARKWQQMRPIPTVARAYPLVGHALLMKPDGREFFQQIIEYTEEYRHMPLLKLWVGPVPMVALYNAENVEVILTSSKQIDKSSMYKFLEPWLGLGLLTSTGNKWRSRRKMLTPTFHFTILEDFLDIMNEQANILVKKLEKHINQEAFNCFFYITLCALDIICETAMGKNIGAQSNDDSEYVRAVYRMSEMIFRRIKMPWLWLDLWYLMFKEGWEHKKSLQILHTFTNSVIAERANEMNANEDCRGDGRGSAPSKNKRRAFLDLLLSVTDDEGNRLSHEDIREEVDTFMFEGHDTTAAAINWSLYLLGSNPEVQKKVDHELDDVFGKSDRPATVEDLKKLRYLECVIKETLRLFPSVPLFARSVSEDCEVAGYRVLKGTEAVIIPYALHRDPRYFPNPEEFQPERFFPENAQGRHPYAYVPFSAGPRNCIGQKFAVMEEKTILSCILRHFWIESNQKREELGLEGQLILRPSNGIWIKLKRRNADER

Row | t1/2eff [1] [h] | pIC50 (human CYP4F22) | pIC50 [2] | pIC50 (human CYP4A11; [3]) | pIC50 (human CYP4F2; [4]) | pIC50 (human CYP4V2) | Structure (SMILES) | inhibitory activities against 20-HETE producing enzymes compared to compound A and compound B ([2]; comparison with compound A and compound B of WO03/022821, human kidney microsomes) | pIC50 (human CYP4A11; E. coli membrane fraction expressing human CYP4A11, 60 μM luciferine derivative, room temperature 60 minutes) | pIC50 (human CYP4F2; E. coli membrane fraction expressing human CYP4F2, 2.5 μM luciferine derivative, room temperature 60 minutes)
1 | 3.6 | 5.89 | 7.92 | 7.72 | 6.62 | 6.21 | O=C(O)C1CC1c1cccc(COc2ccc(-c3ccn[nH]3)nc2)c1F (single isomer, unassigned) [Example 71-46] |  |  | 
2 | 2.4 | 5.60 | 8.33 | 6.92 | 7.01 | 6.29 | O=C(O)C1(OCCCCCCCOc2ccc(-c3ccn[nH]3)nc2)CCC1 [Example 72-2] |  |  | 
3 | 1.4 | 5.42 | 8.40 | 6.89 | 7.37 | 5.82 | O=C(O)C1(CCCCCCCCOc2ccc(-c3ccn[nH]3)nc2)COC1 [Example 72-3] |  |  | 
4 |  | 5.64 | 8.77 | 6.80 | 7.92 | 6.18 | O=C(O)C1(CCCCCCCCOc2ccc(-c3ccn[nH]3)nc2)CS(=O)(=O)C1 [Example 73-1, 1,1-Dioxo-3-[8-[6-(1H-pyrazol-5-yl)pyridin-3-yl]oxyoctyl]thietane-3-carboxylic Acid] |  |  | 
5 |  | 6.55 | 7.70 | 7.28 | 6.89 | 5.64 | O=C(O)C1CC1c1cc(CCOc2ccc(-c3ccn[nH]3)nc2)ccc1F (stereo not shown) [Example 74-2] |  |  | 
6 | 3.5 | 6.32 | 8.36 | 7.09 | 7.24 | 5.64 | O=C(O)[C@H]1C[C@@H]1c1cccc(CCOc2ccc(-c3ccn[nH]3)nc2)c1F [Example 74-4] |  |  | 
7 |  | 5.52 | 8.04 | 7.06 | 7.10 | 5.30 | O=C(O)[C@@H]1C[C@H]1c1cccc(CCOc2ccc(-c3ccn[nH]3)nc2)c1F [Example 74-5] |  |  | 

Row | Structure (SMILES) | t1/2eff [1] [h] | pIC50 (human CYP4F22) | pIC50 [2] | pIC50 (human CYP4A11; [3]) | pIC50 (human CYP4F2; [4]) | pIC50 (human CYP4V2) | inhibitory activities against 20-HETE producing enzymes compared to compound A and compound B ([2]; comparison with compound A and compound B of WO03/022821, human kidney microsomes) | pIC50 (human CYP4A11; E. coli membrane fraction expressing human CYP4A11, 60 μM luciferine derivative, room temperature 60 minutes) | pIC50 (human CYP4F2; E. coli membrane fraction expressing human CYP4F2, 2.5 μM luciferine derivative, room temperature 60 minutes)
8 | CC(C)(OCCCCCCCOc1ccc(-c2ccn[nH]2)nc1)C(=O)O [Example 15-1, 2-Methyl-2-[7-[[6-(1H-pyrazol-5-yl)-3-pyridinyl]oxy]heptoxy]propanoic Acid] | 2.4 | 5.54 | 7.74 |  |  | 6.00 | stronger inhibitory activities | 6.92 | 6.66
